# From PMC7004151, “Synthesis and Structure‐Activity Relationships of N‐(4‐Benzamidino)‐Oxazolidinones: Potent and Selective Inhibitors of Kallikrein‐Related Peptidase 6” (Chemmedchem, 2019)
# Where two headings read alike, the source gives them in different places.
# What was measured:
# Type in all cases: biochemical
# [1] = target: T1, Human trypsin (Homo sapiens, UniProt P07477); experiment: Trypsin enzyme inhibition assay; conditions: for IC50: read-out: Trypsin pIC50 (converted)
# T1 construct: purchased Polymun Scientific
# Experimental: Human thrombin was purchased from Biopur. Human trypsin was purchased from Polymun Scientific. Human Factor Xa was purchased from Enzo Life Sciences. […] Fluorescence intensity was then read at ex/em 485/535 following incubation for 1 h at room temperature (thrombin and factor Xa) or 20 min (trypsin).
# [2] = target: T2, KLK8 (Homo sapiens, UniProt O60259); experiment: KLK8 enzyme inhibition assay; conditions: read-out: KLK8 pIC50 (converted)
# T2 construct: purchased 2B scientific
# T2 sequence (O60259 33-260): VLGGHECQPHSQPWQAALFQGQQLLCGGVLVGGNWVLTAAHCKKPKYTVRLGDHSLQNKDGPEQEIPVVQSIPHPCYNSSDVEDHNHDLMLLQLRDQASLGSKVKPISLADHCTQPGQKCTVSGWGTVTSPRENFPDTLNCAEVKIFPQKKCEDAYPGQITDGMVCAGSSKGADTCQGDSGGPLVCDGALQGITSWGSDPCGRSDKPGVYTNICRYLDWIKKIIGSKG
# Experimental: (§1) Enzyme inhibition assays: All chemicals were purchased from Sigma Aldrich (Gillingham, UK) unless otherwise stated. All experiments were conducted in 384 well black, low volume microplates (Greiner 784076) with a final volume of 20 μL and compounds were dispensed into assay plates using an ECHO 550 acoustic dispenser (Labcyte). KLK6 (5 nM) (prepared as in ref. 21) was incubated with test compounds for 30 min at room temperature in assay buffer (50 mM Tris, pH 7.5, 150 mM NaCl, 1 mM EDTA, 0.05 % tween 20, 0.1 % bovine serum albumin (BSA), 1 mM dithiothreitol (DTT)) before the reaction was started by addition of 20 μM Boc‐Phe‐Ser‐Arg‐AMC substrate (Bachem). Fluorescence intensity was read at ex/em 355/460 following incubation for 2 h in the dark at room temperature.
# (§2) Assays using KLK7 and KLK8 (2B scientific) were conducted in the same manner as for KLK6 with the following exceptions. Both KLK7 and KLK8 required activation before assaying. KLK7 was combined with an equal volume of 20 μg/ml thermolysin (R&D systems) in activation buffer (50 mM Tris, pH 7.5, 10 mM CaCl2, 150 mM NaCl and 0.05 % Brij‐L23) and incubated at 37 °C for 2 h, the reaction was stopped with the addition of 100 mM EDTA in stop solution (50 mM Tris, 150 mM NaCl, pH 8.5). KLK8 was combined with an equal volume of 0.4 mU/mL lysyl endopeptidase (Alpha laboratories) in activation buffer (50 mM Tris, pH 8.0) and incubated at 37 °C for 30 min. Activated KLK7 (40 nM) and KLK8 (25 nM) were assayed with 40 μM Mca‐RPKPVE‐Nval‐WRK(Dnp)‐NH2 fluorogenic MMP substrate (R&D systems) and 25 μM Boc‐V‐P‐R‐AMC substrate (R&D systems), respectively.
# [3] = target: KLK6 (Homo sapiens, UniProt Q92876); experiment: KLK6 enzymatic inhibition assay (fluorogenic Boc-Phe-Ser-Arg-AMC substrate); set-up: made in house; conditions: for LipE: LipE=pIC50 – logP (KLK6 pIC50, ALogP); for IC50: read-out: KLK6 pIC50 (converted)
# Experimental: Using our previously published KLK6 assay format,21 we performed a HTS with the European Lead Factory (ELF),22 and tested ∼350,000 substances at 10 μM for their ability to reduce KLK6‐catalyzed hydrolysis of the fluorogenic Boc‐Phe‐Ser‐Arg‐AMC peptide.
# High Throughput Screen: The European Lead Factory library of ∼350,000 compounds was used for high throughput screening at the Pivot Park Screening Center facilities in Oss, The Netherlands. […] For SPR, Biacore T200 was used and KLK6 was immobilized onto a CM5 chip. […] An 8 point 1 in 3 dilution series of 1 (50 μM to 0.02 μM) was also applied at the beginning and end of each screening day.
# Enzyme inhibition assays: All chemicals were purchased from Sigma Aldrich (Gillingham, UK) unless otherwise stated.
# [4] = target: KLK4 (Homo sapiens, UniProt Q9Y5K2); experiment: KLK4 inhibition (selectivity); conditions: read-out: KLK4 pIC50 (converted)
# Text: Table 3 Activity of synthesized inhibitors against KLK6 and related proteases. | column: KLK4^a
# [5] = target: T3, KLK7 (Homo sapiens, UniProt P49862); experiment: KLK7 enzyme inhibition assay; conditions: read-out: KLK7 pIC50 (converted)
# T3 construct: purchased 2B scientific
# Experimental: as §1, §2
# [6] = target: T4, Human Factor Xa (Homo sapiens, UniProt P00742); experiment: Factor Xa enzyme inhibition assay; conditions: read-out: Factor Xa pIC50 (converted)
# T4 construct: Human Factor Xa was purchased from Enzo Life Sciences; purchased Enzo Life Sciences
# Experimental: (§3) Human thrombin was purchased from Biopur. Human trypsin was purchased from Polymun Scientific. Human Factor Xa was purchased from Enzo Life Sciences. Thrombin (20 nM), trypsin (0.000015 %) or Factor Xa (10 nM) were assayed in a similar manner to the KLKs but were incubated with compound for 20 min at room temperature in assay buffer (50 mM Tris HCl, pH 7.6, 100 mM NaCl, 1 mg/ml CHAPS, 0.05 % bovine serum albumin (BSA), 1 mM dithiothreitol (DTT)) before the addition of 5 μM, 2.5 μM or 1.5 μM Rhodamine 110 substrate (Cambridge bioscience ltd) respectively. Fluorescence intensity was then read at ex/em 485/535 following incubation for 1 h at room temperature (thrombin and factor Xa) or 20 min (trypsin).
# [7] = target: T5, Human thrombin (Homo sapiens, UniProt P00734); experiment: Thrombin enzyme inhibition assay; conditions: read-out: Thrombin pIC50 (converted)
# T5 construct: Human thrombin was purchased from Biopur; purchased Biopur
# Experimental: as §3
# [8] = synthesized inhibitors (Table 3), 8.6 = assay limit
# [9] = resynthesized stereoisomers, enzymatic inhibition assay (Table 2)
# Sequence of KLK4 (Q9Y5K2 31-254, species assumed): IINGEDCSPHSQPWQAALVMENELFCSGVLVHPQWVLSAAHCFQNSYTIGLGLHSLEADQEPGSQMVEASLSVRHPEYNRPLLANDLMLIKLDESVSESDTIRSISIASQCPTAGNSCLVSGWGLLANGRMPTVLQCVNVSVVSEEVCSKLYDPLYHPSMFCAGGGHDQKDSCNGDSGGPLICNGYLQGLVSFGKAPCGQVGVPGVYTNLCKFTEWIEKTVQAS
# T4 sequence (P00742 235-488 limits assumed): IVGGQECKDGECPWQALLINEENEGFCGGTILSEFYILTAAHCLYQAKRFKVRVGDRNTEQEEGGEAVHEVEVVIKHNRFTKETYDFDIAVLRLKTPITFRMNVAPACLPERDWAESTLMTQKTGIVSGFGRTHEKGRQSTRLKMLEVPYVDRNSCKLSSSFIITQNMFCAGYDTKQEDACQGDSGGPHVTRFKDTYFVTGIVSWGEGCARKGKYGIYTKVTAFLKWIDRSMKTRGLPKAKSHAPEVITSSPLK
# T4 sequence (P00742 41-179 partner limits assumed): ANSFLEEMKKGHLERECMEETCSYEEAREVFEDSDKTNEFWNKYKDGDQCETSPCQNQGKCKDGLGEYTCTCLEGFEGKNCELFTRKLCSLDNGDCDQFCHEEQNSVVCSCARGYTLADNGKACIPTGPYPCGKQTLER
# T3 sequence (P49862 30-253, species assumed): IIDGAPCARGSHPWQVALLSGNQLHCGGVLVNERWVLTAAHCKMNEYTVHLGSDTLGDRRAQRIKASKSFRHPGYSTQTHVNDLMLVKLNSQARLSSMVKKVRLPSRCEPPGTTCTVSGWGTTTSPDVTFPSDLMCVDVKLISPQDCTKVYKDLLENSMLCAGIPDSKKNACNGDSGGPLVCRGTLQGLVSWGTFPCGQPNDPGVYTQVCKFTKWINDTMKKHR
SMILES,selectivity against trypsin ([1]; KLK6 over trypsin) [fold],IC50 [1] [µM],IC50 [2] [µM],LipE [3],"IC50 [3, 8] [µM]",IC50 [4] [µM],IC50 [5] [µM],gain in potency for KLK6 ([3]; relative to 5) [fold],IC50 [6] [µM],IC50 [7] [µM],"IC50 [3, 9] [µM]",KLK6 potency loss ([3]; relative to 32) [fold],KLK6 potency loss ([3]; relative to 5) [fold],KLK6 potency loss ([3]; relative to 29) [fold]
"CC[C@H](NC(=O)[C@H]1CN(c2ccc(C(=N)N)nc2)C(=O)O1)c1cccc2ccccc12 [Compound 34, (5R)‐3‐(6‐carbamimidoylpyridin‐3‐yl)‐N‐((1S)‐1‐(naphthalen‐1‐yl)propyl)‐2‐oxooxazolidine‐5‐carboxamide]",> 100,0.631,0.501,5.76,0.00501,,,,,,,,,
"CC[C@H](NC(=O)[C@H]1CN(c2ccc(C(=N)N)cc2)C(=O)O1)c1cccc(OC)c1 [Compound 24, (5R)‐3‐(4‐carbamimidoylphenyl)‐N‐[(1S)‐1‐(3‐methoxyphenyl)propyl]‐2‐oxo‐oxazolidine‐5‐carboxamide]",,1.58,5.01,5.16,0.0316,2.51,> 20,~10,> 20,> 20,,,,
COc1cccc([C@H](C)NC(=O)[C@@H]2CN(c3ccc(C(=N)N)cc3)C(=O)O2)c1 [Compound 10],,,,,,,,,,,> 20,,,
"COc1cccc(CNC(=O)[C@H]2CN(c3ccc(C(=N)N)cc3)C(=O)O2)c1 [Compound 23, (5R)‐3‐(4‐carbamimidoylphenyl)‐N‐(3‐methoxybenzyl)‐2‐oxooxazolidine‐5‐carboxamide]",,> 20,> 20,,3.98,,> 20,,> 20,> 20,,,,
"COc1cccc([C@@H](NC(=O)[C@H]2CN(c3ccc(C(=N)N)cc3)C(=O)O2)C2CC2)c1 [Compound 25, (5R)‐3‐(4‐carbamimidoylphenyl)‐N‐((1S)‐cyclopropyl(3‐methoxyphenyl)methyl)‐2‐oxooxazolidine‐5‐carboxamide]",,0.251,0.794,,0.0316,,> 20,,> 20,> 20,,,,
"CC(C)(NC(=O)[C@H]1CN(c2ccc(C(=N)N)cc2)C(=O)O1)c1ccccc1 [Compound 27, (5R)‐3‐(4‐carbamimidoylphenyl)‐2‐oxo‐N‐(2‐phenylpropan‐2‐yl)oxazolidine‐5‐carboxamide]",,> 20,> 20,,0.794,39.8,> 20,,> 20,> 20,,,,
"CC[C@H](NC(=O)[C@H]1CN(c2ccc(CN)cc2)C(=O)O1)c1cccc2ccccc12 [Compound 35, (5R)‐3‐(4‐(aminomethyl)phenyl)‐N‐[(1S)‐1‐(naphthalen‐1‐yl)propyl]‐2‐oxooxazolidine‐5‐carboxamide]",,5.01,10,,0.316,5.01,,,,,,~100,,
"CC(C)(NC(=O)[C@H]1CN(c2ccc(C(=N)N)cc2)C(=O)O1)C(=O)Nc1ccccc1 [Compound 28, (5R)‐3‐(4‐carbamimidoylphenyl)‐N‐(2‐methyl‐1‐oxo‐1‐(phenylamino)propan‐2‐yl)‐2‐oxooxazolidine‐5‐carboxamide]",,6.31,,6.20,0.0316,1.58,,,,,,,,
"C[C@H](NC(=O)[C@H]1CN(c2ccc(C(=N)N)cc2)C(=O)O1)c1cccc2ccccc12 [Compound 29, (5R)‐3‐(4‐carbamimidoylphenyl)‐N‐((S)‐1‐(naphthalen‐1‐yl)ethyl)‐2‐oxooxazolidine‐5‐carboxamide]",,0.794,1,,0.0126,0.631,> 20,,> 20,> 20,,,,
"COc1cccc([C@H](C)NC[C@H]2CN(c3ccc(C(=N)N)cc3)C(=O)O2)c1 [Compound 49, 4‐((S)‐5‐((((S)‐1‐(3‐methoxyphenyl)ethyl)amino)methyl)‐2‐oxooxazolidin‐3‐yl)benzimidamide]",,> 20,> 20,,10,,> 20,,> 20,> 20,,,40,
"COc1cccc([C@@H](C)NC(=O)[C@H]2CN(c3ccc(C(=N)N)cc3)C(=O)O2)c1 [Compound 11, (5R)‐3‐(4‐carbamimidoylphenyl)‐N‐[(R)‐1‐(3‐methoxyphenyl)ethyl]‐2‐oxooxazolidine‐5‐carboxamide]",,> 20,> 20,,,,> 20,,> 20,> 20,> 20,,,
"COc1cccc(C(C)NC(=O)C2CC(=O)N(c3ccc(C(=N)N)cc3)C2)c1 [Compound 43, (5R)‐1‐(4‐carbamimidoylphenyl)‐N‐[(1S)‐1‐(3‐methoxyphenyl)ethyl]‐5‐oxopyrrolidine‐3‐carboxamide]",,5.01,> 20,,0.316,7.94,> 20,,> 20,> 20,,,,
"CC(C)(NC(=O)[C@H]1CN(c2ccc(C(=N)N)cc2)C(=O)O1)c1cccc2ccccc12 [Compound 31, (5R)‐3‐(4‐carbamimidoylphenyl)‐N‐(2‐(naphthalen‐1‐yl)propan‐2‐yl)‐2‐oxooxazolidine‐5‐carboxamide]",,5.01,> 20,,0.0794,,,,,,,,,~6
"COc1cccc(C(C)(C)NC(=O)[C@H]2CN(c3ccc(C(=N)N)cc3)C(=O)O2)c1 [Compound 26, (5R)‐3‐(4‐carbamimidoylphenyl)‐N‐(2‐(3‐methoxyphenyl)propan‐2‐yl)‐2‐oxooxazolidine‐5‐carboxamide]",,10,> 20,,0.158,,,,,,,,,
"COc1cccc([C@H](C)NC(=O)[C@@H]2CCN(c3ccc(C(=N)N)cc3)C2)c1 [Compound 47, (3R)‐1‐(4‐carbamimidoylphenyl)‐N‐[(1S)‐1‐(3‐methoxyphenyl)ethyl]pyrrolidine‐3‐carboxamide]",,5.01,7.94,,0.794,1.26,> 20,,> 20,> 20,,,,
"CC[C@H](NC(=O)[C@H]1CN(c2ccc(C(=N)N)cc2)C(=O)O1)c1ccnc2ccccc12 [Compound 33, (5R)‐3‐(4‐carbamimidoylphenyl)‐2‐oxo‐N‐((1S)‐1‐(quinolin‐4‐yl)propyl)oxazolidine‐5‐carboxamide]",,6.31,> 20,,0.126,,,,,,,,,
